Test results as given in patent US11161856B2 (H. Lundbeck A/S, priority 2017, dated 2021).

Key:
Type in all cases: biochemical
ABHD6 = biological target: T1, ABHD6 (Mus musculus, UniProt Q8R2Y0); assay: In vitro competitive activity-based protein profiling, mouse brain proteome (ABHD6); conditions: mouse brain proteome; concentration not given (μM)
T1 construct: Brain; from tissue; host or cells: mouse brain proteome
T1 sequence (Q8R2Y0 1-336): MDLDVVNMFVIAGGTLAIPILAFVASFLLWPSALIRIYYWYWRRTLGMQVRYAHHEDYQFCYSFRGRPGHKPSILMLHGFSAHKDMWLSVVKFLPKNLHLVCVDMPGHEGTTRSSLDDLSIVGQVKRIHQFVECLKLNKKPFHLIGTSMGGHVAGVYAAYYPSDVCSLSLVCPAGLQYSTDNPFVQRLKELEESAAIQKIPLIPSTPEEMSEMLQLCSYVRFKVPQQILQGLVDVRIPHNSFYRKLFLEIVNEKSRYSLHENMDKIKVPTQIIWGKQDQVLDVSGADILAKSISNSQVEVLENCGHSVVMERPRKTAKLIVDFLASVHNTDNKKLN
Method: [The source words this procedure for another target and reports this target under the same test.] In Vitro Competitive Activity-Based Protein Profiling.
Proteomes (human prefrontal cortex or cell membrane fractions) (50 μL, 1.0 mg/mL total protein concentration) were preincubated with varying concentrations of inhibitors at 37° C. After 30 min, FP-Rh or HT-01 (1.0 μL, 50 μM in DMSO) was added and the mixture was incubated for another 30 min at room temperature. Reactions were quenched with SDS loading buffer (15 μL-4×) and run on SDS-PAGE.

MAGL = biological target: T2, MAGL (Homo sapiens, UniProt Q99685); assay: In vitro competitive activity-based protein profiling (FP-Rh or HT-01 probe, gel-based); design: IC50 MGLL PC3 (Human, μM) / IC50 MGLL PFC (Human, μM): scale not given here; conditions: for % Inh MGLL PFC (Human, μM): prefrontal cortex (PFC) proteome; for % Inh MGLL PFC (Human, μM) / % Inh MGLL PC3 (Human, μM): concentration not given (μM)
T2 construct: Proteomes (human prefrontal cortex or cell membrane fractions); from tissue
T2 sequence (Q99685 1-303): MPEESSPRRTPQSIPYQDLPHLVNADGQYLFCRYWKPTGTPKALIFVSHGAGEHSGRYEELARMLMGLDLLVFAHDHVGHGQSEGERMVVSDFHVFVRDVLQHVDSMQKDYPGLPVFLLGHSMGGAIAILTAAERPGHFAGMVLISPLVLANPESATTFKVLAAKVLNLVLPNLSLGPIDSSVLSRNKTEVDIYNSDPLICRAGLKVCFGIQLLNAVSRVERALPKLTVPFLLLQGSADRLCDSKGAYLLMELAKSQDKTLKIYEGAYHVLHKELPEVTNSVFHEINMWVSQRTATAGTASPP
Outline: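 Human prefrontal cortex or cell membrane proteomes (1.0 mg/mL total protein) were preincubated with varying inhibitor concentrations for 30 min at 37° C. FP-Rh or HT-01 probe (50 μM DMSO stock) was then added for 30 min at room temperature, and samples were quenched in SDS loading buffer and resolved by SDS-PAGE.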

MGLL = biological target: T3, MGLL (Mus musculus, UniProt O35678); assay: In vitro competitive activity-based protein profiling, mouse brain proteome (MGLL); conditions: concentration not given (μM)
T3 construct: Brain; from tissue; host or cells: mouse brain proteome
T3 sequence (O35678 1-303): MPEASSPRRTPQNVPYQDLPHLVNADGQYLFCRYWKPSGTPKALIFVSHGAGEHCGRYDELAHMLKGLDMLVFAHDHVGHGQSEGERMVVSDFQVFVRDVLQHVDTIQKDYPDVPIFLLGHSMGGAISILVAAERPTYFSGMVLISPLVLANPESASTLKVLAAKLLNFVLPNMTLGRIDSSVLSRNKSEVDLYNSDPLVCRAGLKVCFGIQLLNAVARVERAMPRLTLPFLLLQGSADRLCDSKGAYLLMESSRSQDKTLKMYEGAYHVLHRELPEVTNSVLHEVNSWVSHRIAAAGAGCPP

SMILES	% Inh ABHD6 Brain (Mouse, μM) (ABHD6)	% Inh MGLL PFC (Human, μM) (MAGL)	% Inh MGLL Brain (Mouse, μM) (MGLL)	IC50 MGLL PC3 (Human, μM) (MAGL; PC3 cell proteome)	% Inh MGLL PC3 (Human, μM) (MAGL; PC3 cell proteome)	IC50 (MAGL; PC3 cell proteome, read-out: IC50 MGLL PC3 (Human)) [nM]
O=C(O)CN1CC2CC1CN2c1cc(CN2CCCC23CCN(C(=O)OC(C(F)(F)F)C(F)(F)F)CC3)cc(C(F)(F)F)c1 (stereo not drawn) [Example 128, 2-(5-{3-[(8-{[(1,1,1,3,3,3-Hexafluoropropan-2-yl)oxy]carbonyl}-1,8-diazaspiro[4.5]decan-1-yl)methyl]-5-(trifluoromethyl)phenyl}-2,5-diazabicyclo[2.2.1]heptan-2-yl)acetic acid]	# (# is ≤25%)	### (### is ≥75%)	### (### is ≥75%)	–	–	–
O=C(O)C1CCN(c2cc(C(F)(F)F)ccc2CN2CC3(CCN(C(=O)OC(C(F)(F)F)C(F)(F)F)CC3)C2)C1 (stereo not drawn) [Example 101, l-(2-((7-(((1,1,1,3,3,3-Hexafluoropropan-2-yl)oxy)carbonyl)-2,7-diazaspiro[3,5]nonan-2-yl)methyl)-5-(trifluoromethyl)phenyl)pyrroli-dine-3-carboxylic acid]	### (### is ≥75%)	### (### is ≥75%)	### (### is ≥75%)	–	–	–
O=C(OC(C(F)(F)F)C(F)(F)F)N1CCC2(CCCN2Cc2cc(F)cc(C3(C(=O)O)CCCC3)c2)CC1 [Example 4, 1-(3-Fluoro-5-((8-(((1,1,1,3,3,3-hexafluoropropan-2-yl)oxy)carbonyl)-1,8-diazaspiro[4.5]decan-1-yl)methyl)phenyl)cyclopentane-1-carboxylic acid]	# (# is ≤25%)	–	### (### is ≥75%)	* * *	### (### is ≥75%)	–
O=C(OC(C(F)(F)F)C(F)(F)F)N1CC2(CCN(Cc3ccc(C(F)(F)F)cc3N3CCCC3)CC2)C1 [Example 150, 1,1,1,3,3,3-Hexafluoropropan-2-yl 7-(2-(pyrrolidin-1-yl)-4-(trifluoromethyl)benzyl)-2,7-diazaspiro[3.5]nonane-2-carboxylate]	### (### is ≥75%)	## (## is between 25 and 75%)	# (# is ≤25%)	–	–	–
CN(Cc1ccc(C(F)(F)F)cc1CN1CCC(C(=O)O)CC1)C1(C)CCN(C(=O)OC(C(F)(F)F)C(F)(F)F)CC1 [Example 137, l-(2-(((1-(((1,1,1,3,3,3-Hexafluoropropan-2-yl)oxy)carbonyl)-4-methylpiperidin-4-yl)(methyl)amino)methyl)-5-(trifluoromethyl)benzyl)piperidine-4-carboxylic acid]	# (# is ≤25%)	–	### (### is ≥75%)	–	### (### is ≥75%)	–
O=C(O)C1CCN(Cc2cc(C(F)(F)F)ccc2CN2CCC3(CC2)CCN(C(=O)OC(C(F)(F)F)C(F)(F)F)C3)CC1 [Example 220, l-(2-((2-(((1,1,1,3,3,3-Hexafluoropropan-2-yl)oxy)carbonyl)-2,8-diazaspiro[4.5]decan-8-yl)methyl)-5-(trifluoromethyl)benzyl) piperidine-4-carboxylic acid]	# (# is ≤25%)	## (## is between 25 and 75%)	## (## is between 25 and 75%)	–	–	–
O=C(O)C1CCN(Cc2cc(C(F)(F)F)ccc2C(=O)N2CCCC23CCN(C(=O)OC(C(F)(F)F)C(F)(F)F)CC3)CC1 [Example 10, 1-(2-(8-(((1,1,1,3,3,3-Hexafluoropropan-2-yl)oxy)carbonyl)-1,8-diazaspiro[4.5]decane-1-carbonyl)-5-(trifluoromethyl)benzyl)piperidine-4-carboxylic acid]	# (# is ≤25%)	–	### (### is ≥75%)	–	### (### is ≥75%)	–
CN(Cc1ccc(C(F)(F)F)cc1N1CCC(N2CCC[C@H]2C(=O)O)CC1)C1(C)CCN(C(=O)OC(C(F)(F)F)C(F)(F)F)CC1 [Example 161, (1-(2-(((1-(((1,1,1,3,3,3-Hexafluoropropan-2-yl)oxy)carbonyl)-4-methylpiperidin-4-yl)(methyl)ainino)methyl)-5-(trifluoromethyl)phenyl)piperidin-4-yl)proline]	### (### is ≥75%)	–	### (### is ≥75%)	–	### (### is ≥75%)	< 100
O=C(O)CN1CC2(CCN(c3cc(CN4CCCC45CCN(C(=O)OC(C(F)(F)F)C(F)(F)F)CC5)cc(C(F)(F)F)c3)CC2)C1 [Example 158, 2-(7-(3-((8-(((1,1,1,3,3,3-Hexafluoropropan-2-yl)oxy)carbonyl)-1,8-diazaspiro[4.5]decan-1-yl)methyl)-5-(trifluoromethyl)phenyl)-2,7-diazaspiro[3,5]nonan-2-yl)acetic acid]	# (# is ≤25%)	### (### is ≥75%)	### (### is ≥75%)	–	–	–
O=C(OC(C(F)(F)F)C(F)(F)F)N1CCC2(CCCN2C(=O)c2ccc(C(F)(F)F)cc2)CC1 [Example 83, 1,1,1,3,3,3-Hexafluoropropan-2-yl 1-(4-(trifluoromethyl)benzoyl)-1,8-diazaspiro[4.5]decane-8-carboxylate]	### (### is ≥75%)	### (### is ≥75%)	### (### is ≥75%)	–	–	–
CC1(OCc2cc(N3CCC(C(=O)O)CC3)cc(C(F)(F)F)c2)CCN(C(=O)OC(C(F)(F)F)C(F)(F)F)CC1 [Example 227, l-(3-(((1-(((1,1,1,3,3,3-Hexafluoropropan-2-yl)oxy)carbonyl)-4-melhylpiperidin-4-yl)oxy)methyl)-5-(trifluoromethyl)phenyl) piperidine-4-carboxylic acid]	## (## is between 25 and 75%)	### (### is ≥75%)	### (### is ≥75%)	–	–	–
O=C(O)CN1CCN(c2cc(CN3CCCC34CCN(C(=O)OC(C(F)(F)F)C(F)(F)F)CC4)cc(C(F)(F)F)c2)CC1 [Example 2, 2-(4-(3-((8-(((1,1,1,3,3,3-Hexafluoropropan-2-yl)oxy)carbonyl)-1,8-diazaspiro[4.5]decan-1-yl)methyl)-5-(trifluoromethyl)phenyl)piperazin-1-yl)acetic acid]	# (# is ≤25%)	–	### (### is ≥75%)	–	### (### is ≥75%)	–
O=C(O)CN1CC2CC1CN2c1cc(C(F)(F)F)ccc1CN1CCCC12CCN(C(=O)OC(C(F)(F)F)C(F)(F)F)CC2 (stereo not drawn) [Example 126, 2-(5-{2-[(8-{[(1,1,1,3,3,3-Hexafluoropropan-2-yl)oxy]carbonyl}-1,8-diazaspiro[4.5]decan-1-yl)methyl]-5-(trifluoromethyl)phenyl}-2,5-diazabicyclo[2.2.1]heptan-2-yl)acetic acid]	# (# is ≤25%)	### (### is ≥75%)	### (### is ≥75%)	–	–	–
CC1(C(=O)O)CN(c2cc(CN3CC4(CCN(C(=O)OC(C(F)(F)F)C(F)(F)F)CC4)C3)cc(C(F)(F)F)c2)CCO1 (stereo not drawn) [Example 22, 4-(3-((7-(((1,1,1,3,3,3-Hexafluoropropan-2-yl)oxy)carbonyl)-2,7-diazaspiro[3.5]nonan-2-yl)methyl)-5-(trifluoromethyl)phenyl)-2-methylmorpholine-2-carboxylic acid]	### (### is ≥75%)	### (### is ≥75%)	### (### is ≥75%)	* * *	–	–
